Data reported in patent US20070155764A1, “NOVEL SUBSTITUTED PYRIMIDINYLOXY UREAS USEFUL AS INHIBITORS OF PROTEIN KINASES” (KALYPSYS, INC., priority 2005, published 2007).

Legend:
Format in all cases: biochemical
VEGFR2 kinase = target: T1, VEGFR2 kinase (Homo sapiens, UniProt P35968); assay: In vitro VEGFR2 kinase assay; conditions: ADP Quest assay, poly Glu:Tyr substrate, 60 μM ATP
T1 construct: purchased Invitrogen Inc PV3660
How it was run: (§1)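 Compound was preincubated 10 min at ~22 °C with 20 ng VEGFR2 or 25 ng PDGFRβ, then poly Glu:Tyr (4:1) substrate (0.25 μg) with 60 μM ATP (in added buffer) was reacted 2 h at 30 °C. ADP Quest resorufin fluorescence was read (ex 530/em 580) after 30 min. Efficacy is expressed as percent of positive-control (Bay 43-9006) activity, with DMSO as negative control.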

[1] = target: T2, human B-Raf protein kinase (Homo sapiens, UniProt P15056); assay: In vitro B-Raf/Mek1 composite kinase assay; conditions: recombinant GST-tagged human B-Raf (Δ1-415) with inactive Mek1, 2 μM ATP
T2 construct: GST (N); purchased Upstate Inc. 14-530 (B-Raf); 14-420 (Mek1)
T2 sequence (P15056 416-766): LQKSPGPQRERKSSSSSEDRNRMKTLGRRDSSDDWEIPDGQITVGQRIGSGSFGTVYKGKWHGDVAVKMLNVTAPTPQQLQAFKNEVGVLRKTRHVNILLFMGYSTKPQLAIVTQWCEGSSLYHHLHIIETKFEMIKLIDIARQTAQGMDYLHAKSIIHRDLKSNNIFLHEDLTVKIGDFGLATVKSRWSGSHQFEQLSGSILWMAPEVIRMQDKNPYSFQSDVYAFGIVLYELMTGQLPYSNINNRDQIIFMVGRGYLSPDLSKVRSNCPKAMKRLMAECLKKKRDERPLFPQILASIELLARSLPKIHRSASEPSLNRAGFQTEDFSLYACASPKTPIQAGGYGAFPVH
How it was run: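 Luminescent ATP-depletion assay using recombinant N-terminal GST-tagged human B-Raf (Δ1-415, 1 ng/well) in MOPS pH 7.2 buffer with 10 mM MgCl2. Compounds were preincubated 15 min at about 22° C, then the reaction ran 2 h before PKLight readout. Efficacy is expressed as percentage of positive-control (Bay 43-9006) activity.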

PDGFRβ kinase = target: T3, PDGFRβ kinase (Homo sapiens, UniProt P09619); assay: In vitro PDGFRβ kinase assay; conditions: ADP Quest assay, poly Glu:Tyr substrate, 60 μM ATP
T3 construct: purchased Invitrogen Inc. P3082
T3 sequence (P09619 33-1106): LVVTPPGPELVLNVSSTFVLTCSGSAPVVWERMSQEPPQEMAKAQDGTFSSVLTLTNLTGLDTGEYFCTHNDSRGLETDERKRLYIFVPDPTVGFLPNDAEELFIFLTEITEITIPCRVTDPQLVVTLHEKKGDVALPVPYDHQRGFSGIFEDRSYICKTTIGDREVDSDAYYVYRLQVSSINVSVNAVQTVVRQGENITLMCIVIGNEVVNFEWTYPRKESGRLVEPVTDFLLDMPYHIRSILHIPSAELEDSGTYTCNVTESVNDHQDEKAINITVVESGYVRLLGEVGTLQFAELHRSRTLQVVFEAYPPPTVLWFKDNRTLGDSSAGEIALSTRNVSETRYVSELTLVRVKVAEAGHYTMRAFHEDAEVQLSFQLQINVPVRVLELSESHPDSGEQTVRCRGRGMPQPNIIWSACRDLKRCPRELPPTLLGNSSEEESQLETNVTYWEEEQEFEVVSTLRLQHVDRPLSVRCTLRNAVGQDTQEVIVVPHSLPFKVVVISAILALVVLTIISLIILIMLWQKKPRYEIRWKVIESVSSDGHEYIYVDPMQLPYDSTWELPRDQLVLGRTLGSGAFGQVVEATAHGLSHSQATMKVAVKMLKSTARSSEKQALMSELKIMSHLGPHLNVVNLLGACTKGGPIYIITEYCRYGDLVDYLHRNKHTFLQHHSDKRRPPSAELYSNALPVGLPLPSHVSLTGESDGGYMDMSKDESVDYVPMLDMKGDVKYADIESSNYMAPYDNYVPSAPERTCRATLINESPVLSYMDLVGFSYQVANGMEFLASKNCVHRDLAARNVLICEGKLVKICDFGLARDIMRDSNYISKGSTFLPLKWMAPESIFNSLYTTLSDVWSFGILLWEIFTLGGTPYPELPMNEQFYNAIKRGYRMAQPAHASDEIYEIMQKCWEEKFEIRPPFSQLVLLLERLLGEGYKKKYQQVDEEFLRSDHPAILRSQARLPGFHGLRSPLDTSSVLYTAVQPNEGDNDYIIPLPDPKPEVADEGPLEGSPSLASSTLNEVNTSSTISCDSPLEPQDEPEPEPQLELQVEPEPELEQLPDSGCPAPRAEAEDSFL
How it was run: as §1

T1 sequence (P35968 20-1356): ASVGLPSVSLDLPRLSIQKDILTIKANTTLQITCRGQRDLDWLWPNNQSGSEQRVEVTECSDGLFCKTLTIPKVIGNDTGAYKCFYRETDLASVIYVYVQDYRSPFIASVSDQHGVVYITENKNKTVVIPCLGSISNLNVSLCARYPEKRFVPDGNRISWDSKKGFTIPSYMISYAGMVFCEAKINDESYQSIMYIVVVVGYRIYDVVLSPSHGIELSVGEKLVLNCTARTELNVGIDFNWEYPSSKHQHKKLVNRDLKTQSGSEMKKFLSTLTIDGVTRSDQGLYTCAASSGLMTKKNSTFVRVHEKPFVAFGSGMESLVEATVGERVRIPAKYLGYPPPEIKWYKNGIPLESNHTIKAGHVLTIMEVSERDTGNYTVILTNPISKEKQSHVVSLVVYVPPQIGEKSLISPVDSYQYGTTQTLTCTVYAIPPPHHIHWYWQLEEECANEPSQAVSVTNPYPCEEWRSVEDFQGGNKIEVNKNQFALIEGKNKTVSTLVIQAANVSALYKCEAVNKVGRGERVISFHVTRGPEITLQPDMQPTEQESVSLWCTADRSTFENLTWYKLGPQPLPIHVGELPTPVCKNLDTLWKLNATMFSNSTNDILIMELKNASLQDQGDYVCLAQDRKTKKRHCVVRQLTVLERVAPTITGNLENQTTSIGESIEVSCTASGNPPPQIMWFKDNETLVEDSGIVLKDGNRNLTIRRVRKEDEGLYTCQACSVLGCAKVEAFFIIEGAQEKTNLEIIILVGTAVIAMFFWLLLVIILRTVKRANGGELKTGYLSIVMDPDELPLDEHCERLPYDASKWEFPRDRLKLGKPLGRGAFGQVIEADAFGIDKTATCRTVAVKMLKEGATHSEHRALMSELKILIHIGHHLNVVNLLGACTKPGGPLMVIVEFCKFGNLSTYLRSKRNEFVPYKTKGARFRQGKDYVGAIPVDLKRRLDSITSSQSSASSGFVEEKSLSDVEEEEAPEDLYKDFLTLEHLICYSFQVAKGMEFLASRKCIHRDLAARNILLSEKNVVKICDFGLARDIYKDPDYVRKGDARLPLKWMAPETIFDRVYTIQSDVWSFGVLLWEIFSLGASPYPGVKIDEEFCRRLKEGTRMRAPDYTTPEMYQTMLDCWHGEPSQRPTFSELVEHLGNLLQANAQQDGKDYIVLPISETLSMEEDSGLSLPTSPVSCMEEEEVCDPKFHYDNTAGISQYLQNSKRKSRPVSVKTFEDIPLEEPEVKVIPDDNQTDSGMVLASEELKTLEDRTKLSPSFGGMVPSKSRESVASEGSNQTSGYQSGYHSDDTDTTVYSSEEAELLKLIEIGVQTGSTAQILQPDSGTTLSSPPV

IC50 (VEGFR2 kinase) [µM] | IC50 [1] [µM] | IC50 (PDGFRβ kinase) [µM] | Structure (SMILES)
≤ 10 | ≤ 10 | ≤ 10 | Cn1cc(-c2nccc(Nc3ccc(NC(=O)Nc4ccc(Cl)c(C(F)(F)F)c4)cc3)n2)cn1 [Example 72, 1-(4-Chloro-3-trifluoromethyl-phenyl)-3-{4-[2-(1-methyl-1H-pyrazol-4-yl)-pyrimidin-4-ylamino]-phenyl}-urea]
≤ 10 | ≤ 10 | ≤ 10 | Cn1cc(-c2nccc(Oc3cccc(NC(=O)Nc4ccc(C(F)(F)F)cc4)c3)n2)cn1 [Example 80, 1-(3-(2-(1-Methyl-1H-pyrazol-4-yl)pyrimidin-4-yloxy)phenyl)-3-(4-(trifluoromethyl)phenyl)urea]
≤ 10 | ≤ 10 | ≤ 10 | Cn1cc(-c2nccc(Oc3cccc(NC(=O)Nc4cc(C(F)(F)F)cc(C(F)(F)F)c4)c3)n2)cn1 [Example 84, 1-(3,5-Bis(trifluoromethyl)phenyl)-3-(3-(2-(1-methyl-1H-pyrazol-4-yl)pyrimidin-4-yloxy)phenyl)urea]
≤ 10 | ≤ 10 | ≤ 10 | Cn1cc(-c2nccc(Oc3ccc(NC(=O)Nc4ccc(Cl)c(C(F)(F)F)c4)c(F)c3)n2)cn1 [Example 88, 1-(4-Chloro-3-(trifluoromethyl)phenyl)-3-(2-fluoro-4-(2-(1-methyl-1H-pyrazol-4-yl)pyrimidin-4-yloxy)phenyl)urea]
≤ 10 | ≤ 10 | ≤ 10 | O=C(Nc1ccc(C(F)(F)F)cc1)Nc1cccc(Oc2cc(-c3nnco3)ncn2)c1 [Example 89, 1-(3-(6-(1,3,4-Oxadiazol-2-yl)pyrimidin-4-yloxy)phenyl)-3-(4-(trifluoromethyl)phenyl)urea]
≤ 10 | ≤ 10 | ≤ 10 | Cn1cc(-c2cc(Oc3cccc(NC(=O)Nc4ccc(C(F)(F)F)cc4F)c3)ncn2)cn1 [Example 91, 1-(2-Fluoro-4-(trifluoromethyl)phenyl)-3-(3-(6-(1-methyl-1H-pyrazol-4-yl)pyrimidin-4-yloxy)phenyl)urea]
≤ 10 | ≤ 10 | ≤ 10 | Cn1cc(-c2cc(Oc3ccc(NC(=O)Nc4ccc(Cl)c(C(F)(F)F)c4)c(F)c3)ncn2)cn1 [Example 92, 1-(4-Chloro-3-(trifluoromethyl)phenyl)-3-(2-fluoro-4-(6-(1-methyl-1H-pyrazol-4-yl)pyrimidin-4-yloxy)phenyl)urea]
≤ 10 | ≤ 10 | ≤ 10 | Cn1cc(-c2nccc(Oc3ccc(NC(=O)Nc4cccc(C(F)(F)F)c4)c(F)c3)n2)cn1 [Example 93, 1-(2-Fluoro-4-(2-(1-methyl-1H-pyrazol-4-yl)pyrimidin-4-yloxy)phenyl)-3-(3-(trifluoromethyl)phenyl)urea]

Second part, the molecule before the results:

Structure (SMILES) | IC50 (VEGFR2 kinase) [µM] | IC50 [1] [µM] | IC50 (PDGFRβ kinase) [µM]
Cc1nn(C)c(C)c1-c1cc(Oc2ccc(NC(=O)Nc3ccc(Cl)c(C(F)(F)F)c3)cc2)ncn1 [Example 70, 1-(4-Chloro-3-(trifluoromethyl)phenyl)-3-(4-(6-(1,3,5-trimethyl-1H-pyrazol-4-yl)pyrimidin-4-yloxy)phenyl)urea] | > 10 | > 10 | ≤ 10
Cn1cc(-c2nccc(Oc3cccc(NC(=O)Nc4ccc(Cl)c(C(F)(F)F)c4)c3)n2)cn1 [Example 71, 1-(4-Chloro-3-(trifluoromethyl)phenyl)-3-(3-(2-(1-methyl-1H-pyrazol-4-yl)pyrimidin-4-yloxy)phenyl)urea] | ≤ 10 | ≤ 10 | ≤ 10
O=C(Nc1ccc(Oc2cc(-c3nc(C(F)(F)F)c[nH]3)ncn2)cc1)Nc1ccc(Cl)c(C(F)(F)F)c1 [Example 73, 1-(4-Chloro-3-(trifluoromethyl)phenyl)-3-(4-(6-(4-(trifluoromethyl)-1H-imidazol-2-yl)pyrimidin-4-yloxy)phenyl)urea] | > 10 | ≤ 10 | ≤ 10
O=C(Nc1cccc(Oc2cc(-c3nc(C(F)(F)F)c[nH]3)ncn2)c1)Nc1ccc(Cl)c(C(F)(F)F)c1 [Example 74, 1-(4-Chloro-3-(trifluoromethyl)phenyl)-3-(3-(6-(4-(trifluoromethyl)-1H-imidazol-2-yl)pyrimidin-4-yloxy)phenyl)urea] | > 10 | ≤ 10 | ≤ 10
COCCOc1ccc(NC(=O)Nc2cc(Oc3ccnc(-c4cnn(C)c4)n3)c(F)cc2F)cc1C(F)(F)F [Example 75, 1-(2,4-Difluoro-5-(2-(1-methyl-1H-pyrazol-4-yl)pyrimidin-4-yloxy)phenyl)-3-(4-(2-methoxyethoxy)-3-(trifluoromethyl)phenyl)urea] | ≤ 10 | ≤ 10 | ≤ 10
O=C(Nc1ccc(Oc2cc(-c3cnn(CCN4CCOCC4)c3)ncn2)cc1)Nc1ccc(Cl)c(C(F)(F)F)c1 [Example 76, 1-(4-Chloro-3-(trifluoromethyl)phenyl)-3-(4-(6-(1-(2-morpholinoethyl)-1H-pyrazol-4-yl)pyrimidin-4-yloxy)phenyl)urea] | ≤ 10 | ≤ 10 | ≤ 10
O=C(Nc1cccc(Oc2cc(-c3cnn(CCN4CCOCC4)c3)ncn2)c1)Nc1ccc(Cl)c(C(F)(F)F)c1 [Example 77, 1-(4-Chloro-3-(trifluoromethyl)phenyl)-3-(3-(6-(1-(2-morpholinoethyl)-1H-pyrazol-4-yl)pyrimidin-4-yloxy)phenyl)urea] | ≤ 10 | ≤ 10 | ≤ 10
Cn1cc(-c2nccc(Oc3ccc(F)c(NC(=O)Nc4ccc(Cl)c(C(F)(F)F)c4)c3)n2)cn1 [Example 78, 1-(4-Chloro-3-(trifluoromethyl)phenyl)-3-(2-fluoro-5-(2-(1-methyl-1H-pyrazol-4-yl)pyrimidin-4-yloxy)phenyl)urea] | ≤ 10 | ≤ 10 | ≤ 10
Cn1cc(-c2nccc(Oc3cccc(NC(=O)Nc4ccc(OC(F)(F)F)cc4)c3)n2)cn1 [Example 79, 1-(3-(2-(1-Methyl-1H-pyrazol-4-yl)pyrimidin-4-yloxy)phenyl)-3-(4-(trifluoromethoxy)phenyl)urea] | ≤ 10 | ≤ 10 | ≤ 10
CCOC(=O)c1coc(-c2cc(Oc3cccc(NC(=O)Nc4ccc(Cl)c(C(F)(F)F)c4)c3)ncn2)n1 [Example 81, Ethyl 2-(6-(3-(3-(4-chloro-3-(trifluoromethyl)phenyl)ureido)phenoxy)pyrimidin-4-yl)oxazole-4-carboxylate] | ≤ 10 | ≤ 10 | ≤ 10
NC(=O)c1coc(-c2cc(Oc3cccc(NC(=O)Nc4ccc(Cl)c(C(F)(F)F)c4)c3)ncn2)n1 [Example 82, 2-(6-(3-(3-(4-Chloro-3-(trifluoromethyl)phenyl)ureido)phenoxy)pyrimidin-4-yl)oxazole-4-carboxamide] | ≤ 10 | ≤ 10 | ≤ 10
Cn1cc(-c2nccc(Oc3cccc(NC(=O)Nc4cccc(OC(F)(F)F)c4)c3)n2)cn1 [Example 83, 1-(3-(2-(1-Methyl-1H-pyrazol-4-yl)pyrimidin-4-yloxy)phenyl)-3-(3-(trifluoromethoxy)phenyl)urea] | ≤ 10 | ≤ 10 | ≤ 10
O=C(Nc1cccc(Oc2cc(-c3ncc[nH]3)ncn2)c1)Nc1ccc(Cl)c(C(F)(F)F)c1 [Example 85, 1-(3-(6-(1H-Imidazol-2-yl)pyrimidin-4-yloxy)phenyl)-3-(4-chloro-3-(trifluoromethyl)phenyl)urea] | ≤ 10 | ≤ 10 | ≤ 10
C#Cc1cccc(NC(=O)Nc2cccc(Oc3cc(-c4cnn(C)c4)ncn3)c2)c1 [Example 86, 1-(3-Ethynylphenyl)-3-(3-(6-(1-methyl-1H-pyrazol-4-yl)pyrimidin-4-yloxy)phenyl)urea] | ≤ 10 | ≤ 10 | ≤ 10
Cn1cc(-c2cc(Oc3ccc(F)c(NC(=O)Nc4ccc(C(F)(F)F)cc4F)c3)ncn2)cn1 [Example 90, 1-(2-Fluoro-4-(trifluoromethyl)phenyl)-3-(2-fluoro-5-(6-(1-methyl-1H-pyrazol-4-yl)pyrimidin-4-yloxy)phenyl)urea] | ≤ 10 | ≤ 10 | ≤ 10
COc1ccc(C(F)(F)F)cc1NC(=O)Nc1cccc(Oc2cc(-c3cnn(C)c3)ncn2)c1 [Example 94, 1-(2-Methoxy-5-(trifluoromethyl)phenyl)-3-(3-(6-(1-methyl-1H-pyrazol-4-yl)pyrimidin-4-yloxy)phenyl)urea] | ≤ 10 | ≤ 10 | ≤ 10
COc1ccc(C(F)(F)F)cc1NC(=O)Nc1cc(Oc2cc(-c3cnn(C)c3)ncn2)ccc1F [Example 95, 1-(2-Fluoro-5-(6-(1-methyl-1H-pyrazol-4-yl)pyrimidin-4-yloxy)phenyl)-3-(2-methoxy-5-(trifluoromethyl)phenyl)urea] | ≤ 10 | ≤ 10 | ≤ 10
Cn1cc(-c2cc(Oc3cccc(NC(=O)Nc4ccc(C(F)(F)F)cc4Cl)c3)ncn2)cn1 [Example 96, 1-(2-Chloro-4-(trifluoromethyl)phenyl)-3-(3-(6-(1-methyl-1H-pyrazol-4-yl)pyrimidin-4-yloxy)phenyl)urea] | ≤ 10 | ≤ 10 | ≤ 10
